This note sets out measurements from patent US9763445B2, “Safened herbicidal compositions comprising a pyridine carboxylic acid herbicide” (Dow AgroSciences, LLC, priority 2014, dated 2017).

The test system of one assay is velvetleaf (ABUTH). In words: Postemergence greenhouse trial, % visual injury on velvetleaf. It counts as in vivo, Abutilon theophrasti. The settings on record: alone, 35 g/ha. How it is done: (§1) Seeds of the desired test plant species were planted in Sun Gro MetroMix® 306 planting mixture, which typically has a pH of 6.0 to 6.8 and an organic matter content of about 30 percent, in plastic pots with a surface area of 103.2 square centimeters (cm^2). When required to ensure good germination and healthy plants, a fungicide treatment and/or other chemical or physical treatment was applied. The plants were grown for 7-36 days (d) in a greenhouse with an approximate 14-hour (h) photoperiod which was maintained at about 23° C. during the day and 22° C. during the night. Nutrients and water were added on a regular basis and supplemental lighting was provided with overhead metal halide 1000-Watt lamps as necessary. The plants were employed for testing when they reached the second or third true leaf stage.
(§2) Weighed amounts of technical material were dissolved in a volume of 97:3 volume per volume (v/v) acetone/dimethyl sulfoxide (DMSO) to stock solutions. […] The concentrated stock solutions were diluted with an aqueous mixture of 1.5% v/v of Agri-dex crop oil concentrate to provide the appropriate application rates. Compound requirements are based upon a 12 milliliter (mL) application volume at a rate of 187 liters per hectare (L/ha). Stocks solutions of the safeners were prepared following the same procedure. Spray solutions of the safeners and experimental compound mixtures were prepared by adding the stock solutions to the appropriate amount of dilution solution to form a 12 mL spray solution in two-way combinations. Formulated compounds were applied to the plant material with an overhead Mandel track sprayer equipped with 8002E nozzles calibrated to deliver 187 L/ha over an application area of 0.503 square meters (m^2) at a spray height of 18 inches (43 centimeters (cm)) above average plant canopy. Control plants were sprayed in the same manner with the solvent blank. All herbicide application (component a) rates are in g ae/ha and all safener (component b) rates are in g ai/ha.
(§3) The treated plants and control plants were placed in a greenhouse as described above and watered by sub-irrigation to prevent wash-off of the test compounds. After 20-22 d, the condition of the test plants as compared with that of the control plants was determined visually and scored on a scale of 0 to 100 percent where 0 corresponds to no injury and 100 corresponds to complete kill. The condition of the test plants was compared with that of the control plants as determined visually and scored on a scale of 0 to 100 percent, where 0 corresponds to no injury and 100 corresponds to complete kill. Colby's equation was used to determine the herbicidal effects expected from the mixtures.
(§4) The safener cloquintocet-mexyl was combined with compound 1, compound 2, compound 4, compound 5, and compound 6, and applied to corn/maize (ZEAMX) and spring wheat (TRZAS) and the phytotoxicity of the herbicidal compositions was measured. In addition, the efficacy of the herbicidal composition on velvetleaf (ABUTH, Abutilon theophrasti), pigweed (AMARE, Amaranthus retroflexus), winter rape (BRSNW, Brassica napus), lambsquarters (CHEAL, Chenopodium album), thistle (CIRAR, Cirsium arvense), nutsedge (CYPES, Cyperus esculentus), poinsettia (EPHHL, Euphorbia heterophylla), wild buckwheat (POLCO, Polygonum convolvulus), giant foxtail (SETFA, Setaria faberi), and chickweed (STEME, Stellaria media) was evaluated.
(§5) The safener cloquintocet-mexyl was combined with compound 1, compound 2, compound 3, compound 7, compound 8, compound 9, compound 10, compound 11, compound 12, compound 13, compound 14, compound 15, compound 16, compound 17, compound 18, compound 19, and compound 20, and applied to spring wheat (TRZAS), winter wheat (TRZAW), and spring barley (HORVS) and the phytotoxicity of the herbicidal compositions was measured. […]

The next assay has as its system wild buckwheat (POLCO). The experiment in a line: Postemergence greenhouse trial, % visual injury on wild buckwheat. The settings on record: alone, 35 g/ha. It counts as in vivo, Polygonum convolvulus. Here is the method: as §1, §2, §3, §4, §5
Another assay deals with poinsettia (EPHHL). The experiment in a line: Postemergence greenhouse trial, % visual injury on poinsettia. Type of assay: in vivo, Euphorbia heterophylla. The settings on record: alone, 35 g/ha. How it is done:
as §1
Weighed amounts of technical material were dissolved in a volume of 97:3 volume per volume (v/v) acetone/dimethyl sulfoxide (DMSO) to stock solutions. […] The concentrated stock solutions were diluted with an aqueous mixture of 1.5% v/v of Agri-dex crop oil concentrate to provide the appropriate application rates. Compound requirements are based upon a 12 milliliter (mL) application volume at a rate of 187 liters per hectare (L/ha). Stocks solutions of the safeners were prepared following the same procedure. […]
as §3, with “Colby's equation was used to determine the herbicidal effects expected from the mixtures.” left out
as §4, with “evaluated. […]” for “evaluated.”

The test system of a further assay is spring wheat (TRZAS). The experiment in a line: Postemergence greenhouse trial, % visual injury on spring wheat. Conditions: alone, 35 g/ha. Type of assay: in vivo, Triticum aestivum. Here is the method: as §1, §2, §3, §4, §5
The next assay concerns corn/maize (ZEAMX). In words: Postemergence greenhouse trial, % visual injury on corn/maize. Type of assay: in vivo, Zea mays. The settings on record: for % visual injury, Ob: alone, 35 g/ha; for % visual injury, observed (Ob): ZEAMX. How it is done:
as §1, §2, §3
as §4, with “evaluated. […]” for “evaluated.”

A further assay relates to pigweed (AMARE). The experiment in a line: Postemergence greenhouse trial, % visual injury on pigweed. Conditions: for pest or weed control at 35 g/ha: Amaranthus retroflexus, post-emergence, alone, read-out: % visual injury, Ob; for % visual injury, observed (Ob): AMARE. It counts as in vivo, Amaranthus retroflexus. A digest of the protocol: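 Injury was scored visually (0 = none, 100 = complete kill) 20–22 d after track-sprayer application at 187 L/ha, compared with solvent-sprayed controls. Test plants at the 2–3 true leaf stage; herbicide (g ae/ha) plus cloquintocet-mexyl safener (g ai/ha) in crop-oil-containing spray; expected mixture response by Colby.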

The subject of a further assay is lambsquarters (CHEAL). The experiment in a line: Postemergence greenhouse trial, % visual injury on lambsquarters. Type of assay: in vivo, Chenopodium album. Conditions: Chenopodium album, post-emergence; alone, 35 g/ha; read-out: % visual injury, Ob. How it is done:
as §1, §2, §3, §4, §5

In a further assay the test system is nutsedge (CYPES). In words: Postemergence greenhouse trial, % visual injury on nutsedge. The settings on record: for % visual injury, observed (Ob): CYPES. It counts as in vivo, Cyperus esculentus. Here is the method:
as §1, §2, §3
as §4, with “evaluated. […]” for “evaluated.”
The safener cloquintocet-acid and a number of agriculturally acceptable esters and salts (-mexyl, -dimethylammonium salt and -triethylammonium salt) were combined in varying ratios with compound 1 and applied to spring wheat (TRZAS), winter wheat (TRZAW), and spring barley (HORVS), and the phytotoxicity of the herbicidal compositions was measured. […]

In the next assay the test system is thistle (CIRAR). The experiment in a line: Postemergence greenhouse trial, % visual injury on thistle. Type of assay: in vivo, Cirsium arvense. The settings on record: Cirsium arvense, post-emergence; alone, 35 g/ha; read-out: % visual injury, Ob. How it is done: as §1, §2, §3
as §4, with “evaluated. […]” for “evaluated.”

Another assay has as its system winter rape (BRSNW). The experiment in a line: Postemergence greenhouse trial, % visual injury on winter rape. Type of assay: in vivo, Brassica napus. Conditions: Brassica napus, post-emergence; alone, 35 g/ha; read-out: % visual injury, Ob. In a few lines:
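Visual injury, 0 (none) to 100 (complete kill), rated 20-22 d after overhead track-sprayer application at 187 L/ha; Colby's equation gave expected mixture responses. Herbicide (g ae/ha) and cloquintocet-mexyl safener (g ai/ha) diluted in aqueous 1.5% v/v Agri-dex, applied to weeds at 2–3 true leaves.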

The subject of another assay is common sunflower (HELAN). In words: Postemergence greenhouse trial, % visual injury on common sunflower. Type of assay: in vivo, Helianthus annuus. How it is done: as §1, §2, §3
(§6) The safener cloquintocet-acid and a number of agriculturally acceptable esters and salts (-mexyl, -dimethylammonium salt and -triethylammonium salt) were combined in varying ratios with compound 1 and applied to spring wheat (TRZAS), winter wheat (TRZAW), and spring barley (HORVS), and the phytotoxicity of the herbicidal compositions was measured. In addition, the efficacy of the herbicidal composition on pigweed (AMARE, Amaranthus retroflexus), nutsedge (CYPES, Cyperus esculentus), common sunflower (HELAN, Helianthus annuus), and common sorghum (SORVU, Sorghum vulgare).

The test system of a further assay is winter wheat (TRZAW). The experiment in a line: Postemergence greenhouse trial, % visual injury on winter wheat. It counts as in vivo, Triticum aestivum. Conditions: TRZAW. How it is done:
as §1, §2, §3, §5

For another assay, the system named is common sorghum (SORVU). The experiment in a line: Postemergence greenhouse trial, % visual injury on common sorghum. Type of assay: in vivo, Sorghum vulgare. The settings on record: SORVU. How it is done:
as §1, §2
as §3, with “mixtures. […]” for “mixtures.”
as §6

The next assay deals with chickweed (STEME). In words: Postemergence greenhouse trial, % visual injury on chickweed. It counts as in vivo, Stellaria media. The settings on record: alone, 35 g/ha. How it is done:
as §1, §2, §3
as §4, with “evaluated. […]” for “evaluated.”

Regarding `COCC(=O)n1ccc2ccc(-c3nc(C(=O)OC)c(Cl)c(N)c3F)c(F)c21` [compound 6], the “% visual injury, Ob” value in the assay on velvetleaf (ABUTH) was found to be 80%; with wild buckwheat (POLCO), 97%; in the assay with poinsettia (EPHHL), 100%; in the assay on spring wheat (TRZAS), 35%; in the assay on corn/maize (ZEAMX) it was 25%; with nutsedge (CYPES) (alone, 35 g/ha) it was 0%. Further, the pest or weed control at 35 g/ha in the assay on pigweed (AMARE) is 100%; in the assay on lambsquarters (CHEAL), 100%; with thistle (CIRAR), 75%. The plant injury at 35 g/ha in the assay on winter rape (BRSNW) turned out to be 75%.
As for `O=C(O)COc1ccc(Cl)c2cccnc12` [CQC-acid], the “% visual injury, observed (Ob)” value with common sunflower (HELAN) (safener alone 2.5 g/ha), with common sunflower (HELAN) (safener alone 5 g/ha), in the assay on common sunflower (HELAN) (safener alone 10 g/ha), with common sunflower (HELAN) (safener alone 20 g/ha), with winter wheat (TRZAW) (safener alone 2.5 g/ha) and in the assay with winter wheat (TRZAW) (safener alone 5 g/ha) was 0% each time. Moreover, the “% visual injury, observed (Ob)” value in the assay with winter wheat (TRZAW) (safener alone 10 g/ha), in the assay on winter wheat (TRZAW) (safener alone 20 g/ha), with corn/maize (ZEAMX) (safener alone 2.5 g/ha), in the assay on corn/maize (ZEAMX) (safener alone 5 g/ha), in the assay with corn/maize (ZEAMX) (safener alone 10 g/ha) and with corn/maize (ZEAMX) (safener alone 20 g/ha) was 0% each time. Moreover, the “% visual injury, observed (Ob)” value in the assay with pigweed (AMARE) (safener alone 2.5 g/ha), in the assay with pigweed (AMARE) (safener alone 5 g/ha), in the assay on pigweed (AMARE) (safener alone 10 g/ha), in the assay on pigweed (AMARE) (safener alone 20 g/ha), in the assay with nutsedge (CYPES) (safener alone 2.5 g/ha) and in the assay on nutsedge (CYPES) (safener alone 5 g/ha) was 0% throughout. The “% visual injury, observed (Ob)” value in the assay on nutsedge (CYPES) (safener alone 10 g/ha), with nutsedge (CYPES) (safener alone 20 g/ha), in the assay with common sorghum (SORVU) (safener alone 2.5 g/ha), in the assay with common sorghum (SORVU) (safener alone 5 g/ha), in the assay with common sorghum (SORVU) (safener alone 10 g/ha) and in the assay with common sorghum (SORVU) (safener alone 20 g/ha) was 0% each time.
As for `COC(=O)c1nc(-c2ccc3ccn(C(=O)C(C)C)c3c2F)c(F)c(N)c1Cl` [compound 4], the “% visual injury, Ob” value in the assay with velvetleaf (ABUTH) was determined as 80%; in the assay with wild buckwheat (POLCO), 100%; with chickweed (STEME), 93%; with spring wheat (TRZAS) it was 40%; in the assay on corn/maize (ZEAMX), 35%. Further, the pest or weed control at 35 g/ha was 100% in the assay with pigweed (AMARE), 97% with lambsquarters (CHEAL) and 75% with thistle (CIRAR). The plant injury at 35 g/ha in the assay on winter rape (BRSNW) worked out at 97%.
Regarding `CNC.O=C(O)COc1ccc(Cl)c2cccnc12` [CQC-DMA], the “% visual injury, observed (Ob)” value in the assay with common sunflower (HELAN) (safener alone 2.5 g/ha), in the assay with common sunflower (HELAN) (safener alone 5 g/ha), in the assay on common sunflower (HELAN) (safener alone 10 g/ha), in the assay on common sunflower (HELAN) (safener alone 20 g/ha), with winter wheat (TRZAW) (safener alone 2.5 g/ha) and with winter wheat (TRZAW) (safener alone 5 g/ha) was 0% throughout. In addition, the “% visual injury, observed (Ob)” value with winter wheat (TRZAW) (safener alone 10 g/ha), with winter wheat (TRZAW) (safener alone 20 g/ha), with corn/maize (ZEAMX) (safener alone 2.5 g/ha), in the assay with corn/maize (ZEAMX) (safener alone 5 g/ha), in the assay with corn/maize (ZEAMX) (safener alone 10 g/ha) and with corn/maize (ZEAMX) (safener alone 20 g/ha) was 0% in each case. For the same compound, the “% visual injury, observed (Ob)” value in the assay with pigweed (AMARE) (safener alone 2.5 g/ha), in the assay on pigweed (AMARE) (safener alone 5 g/ha), in the assay on pigweed (AMARE) (safener alone 10 g/ha), in the assay on pigweed (AMARE) (safener alone 20 g/ha), with nutsedge (CYPES) (safener alone 2.5 g/ha) and in the assay on nutsedge (CYPES) (safener alone 5 g/ha) was 0% each time. Also, the “% visual injury, observed (Ob)” value in the assay with nutsedge (CYPES) (safener alone 10 g/ha), with nutsedge (CYPES) (safener alone 20 g/ha), in the assay on common sorghum (SORVU) (safener alone 2.5 g/ha), in the assay on common sorghum (SORVU) (safener alone 5 g/ha), in the assay on common sorghum (SORVU) (safener alone 10 g/ha) and in the assay on common sorghum (SORVU) (safener alone 20 g/ha) was 0% throughout.
